According to PMC5770336, “Characterisation of endogenous A2A and A2B receptor-mediated cyclic AMP responses in HEK 293 cells using the GloSensor™ biosensor: Evidence for an allosteric mechanism of action for the A2B-selective antagonist PSB 603” (Biochemical Pharmacology, 2018):
Several values for one entry are separate records, joined by “and”; a condition that tells them apart may be missing. Equal entries are not always repeated. Entries after “also recorded” stand apart in the source; their conditions may differ. Where two headings read alike, the source gives them in different places.

Key:
A2BAR [1] = biological target: T1, A2BAR (Homo sapiens, UniProt P29275); assay: GloSensor cAMP luminescence assay in HEK293G cells, endogenous A2BAR-mediated responses (NECA, adenosine, BAY 60-6583); format: cell-based; conditions: for inhibition of the response to 10 µM NECA (in words) / IC50 / pIC50: 30 min pre-incubation; for inhibition of the response to 10 µM NECA (in words): antagonist up to 10 µM; for mode of antagonism (in words): agonist concentration-response curves with increasing antagonist; for antagonism of the response to BAY 60-6583 (in words): 1 μM BAY 60-6583; for -Log KB / Kb: apparent KB, modified Gaddum equation
T1 construct: Gs-coupled A2BARs endogenously expressed in HEK293 cells; host or cells: HEK293G (HEK293 stably expressing the GloSensor 20F cAMP biosensor)
T1 sequence (P29275 1-332): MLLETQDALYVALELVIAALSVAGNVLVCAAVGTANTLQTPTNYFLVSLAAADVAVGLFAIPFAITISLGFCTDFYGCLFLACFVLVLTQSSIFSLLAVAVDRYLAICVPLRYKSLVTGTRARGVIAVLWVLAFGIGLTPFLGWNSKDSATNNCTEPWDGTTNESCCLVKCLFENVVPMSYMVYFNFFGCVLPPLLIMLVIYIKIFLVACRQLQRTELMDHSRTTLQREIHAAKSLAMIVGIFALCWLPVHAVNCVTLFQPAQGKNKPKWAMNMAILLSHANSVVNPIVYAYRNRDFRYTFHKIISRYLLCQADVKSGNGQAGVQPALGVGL
Method: (§1) The cAMP GloSensor™ (20F) biosensor [26] expressed in HEK293 (HEK293G) cells was obtained from Promega (Madison, WI). HEK293G cells were maintained in Dulbecco modified eagles medium (DMEM) supplemented with 2 mM L-glutamine, 10% FCS (fetal calf serum) and 200 μg/ml hygromycin B at 37 °C 5% CO2. […] For the GloSensor™ assay, cells were re-suspended in DMEM supplemented with 2 mM L-glutamine and 10% FCS and seeded at a density of 35000 cells/well on poly-l-lysine treated clear bottomed white walled 96 well plates. Cells were incubated at 37°C 5% CO2 overnight prior to assay.
(§2) The GloSensor™ assay was carried out as per manufacturer’s instructions (Promega, Madison, WI, USA). […] Agonist concentration response curves were simultaneously obtained (in the absence of antagonist).

A2BAR [2] = conditions: cited from earlier work
A2AAR [3] = biological target: T2, A2AAR (Homo sapiens, UniProt P29274); assay: GloSensor cAMP luminescence assay in HEK293G cells, endogenous A2AAR-mediated responses (CGS 21680); format: cell-based
T2 construct: We also provide evidence for a minor population of endogenous A2AAR in this cell line; host or cells: HEK293G (HEK293 stably expressing the GloSensor 20F cAMP biosensor)
T2 sequence (P29274 whole entry): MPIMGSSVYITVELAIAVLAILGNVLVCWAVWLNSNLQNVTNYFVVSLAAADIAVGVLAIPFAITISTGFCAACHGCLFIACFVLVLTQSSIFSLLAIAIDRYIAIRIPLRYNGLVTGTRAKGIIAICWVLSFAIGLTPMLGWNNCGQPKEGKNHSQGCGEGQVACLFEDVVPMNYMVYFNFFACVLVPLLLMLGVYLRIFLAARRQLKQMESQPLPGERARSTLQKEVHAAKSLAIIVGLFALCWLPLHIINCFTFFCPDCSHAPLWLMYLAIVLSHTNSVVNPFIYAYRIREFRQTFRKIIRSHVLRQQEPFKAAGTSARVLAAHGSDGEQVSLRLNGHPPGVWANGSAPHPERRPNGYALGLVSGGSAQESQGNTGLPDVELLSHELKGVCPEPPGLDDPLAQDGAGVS
Method: as §1, §2

A2AAR [4] = conditions: cited from earlier work
adenylyl cyclase = assay: Forskolin-stimulated GloSensor cAMP luminescence in HEK293G cells; format: cell-based, human; conditions: forskolin concentration-response curves, PSB 603 up to 300 nM
Method: The cAMP GloSensor™ (20F) biosensor [26] expressed in HEK293 (HEK293G) cells was obtained from Promega (Madison, WI). HEK293G cells were maintained in Dulbecco modified eagles medium (DMEM) supplemented with 2 mM L-glutamine, 10% FCS (fetal calf serum) and 200 μg/ml hygromycin B at 37 °C 5% CO2. Once confluent, cells were dislodged from the flask surface by gentle shaking after incubation in 0.25% trypsin and cell pellet formed following 5 min 1000 g centrifugation. For the GloSensor™ assay, cells were re-suspended in DMEM supplemented with 2 mM L-glutamine and 10% FCS and seeded at a density of 35000 cells/well on poly-l-lysine treated clear bottomed white walled 96 well plates. Cells were incubated at 37°C 5% CO2 overnight prior to assay.
The GloSensor™ assay was carried out as per manufacturer’s instructions (Promega, Madison, WI, USA).

[5] = antagonism of BAY 60-6583 (1 µM) response, HEK293G
[6] = antagonism of NECA (10 µM) response, HEK293G
[7] = antagonism of adenosine (10 µM) response, HEK293G

Structure (SMILES): Nc1nc(NCCc2ccc(O)cc2)nc2nc(-c3ccco3)nn12 [ZM 241385, 4-(2-[7-Amino-2-(2-furyl)[1,2,4]triazolo[2,3-a][1,3,5]triazin-5-ylamino]ethyl)phenol]
- inhibition of the response to 10 µM NECA (in words) (A2BAR [1]): complete inhibition
- mode of antagonism (in words) (A2BAR [1]): competitive interaction

Structure (SMILES): Nc1nc2c(cnn2CCc2ccccc2)c2nc(-c3ccco3)nn12 [SCH 58261, 2-(2-Furanyl)-7-(2-phenylethyl)-7H-pyrazolo [4,3-e][1,2,4] triazolo[1,5-c]pyrimidin-5-amine]
- Ki (A2BAR [2]): 5010 nM
- antagonism of the CGS 21680 response (in words) (A2AAR [3]): complete concentration-dependent antagonism
- antagonism of the response to BAY 60-6583 (in words) (A2BAR [1]): weak antagonist
- inhibition of the response to 10 µM NECA (in words) (A2BAR [1]): failed to inhibit
- inhibition of the adenosine response (A2BAR [1]; highest concentration tested, not statistically significant): approximately 35%

Structure (SMILES): CCCn1c(=O)[nH]c2nc(-c3ccc(S(=O)(=O)N4CCN(c5ccc(Cl)cc5)CC4)cc3)[nH]c2c1=O [PSB 603]
- Ki (A2BAR [2]): 0.5 nM
- antagonism of the CGS 21680 response (in words) (A2AAR [3]; 1 μM CGS 21680, competition curves): unable to inhibit; also recorded: not affected
- effect of pre-incubation on CGS 21680 concentration-response curves (in words) (A2AAR [3]; PSB 603 up to 300 nM): did not affect; also recorded: completely unaffected
- antagonism of the response to BAY 60-6583 (in words) (A2BAR [1]): completely abolish the response
- maximal inhibition of the NECA response (A2BAR [1]; 10 µM NECA, % of the maximal response to NECA): 81.7 ± 2.4% and 80%
- inhibition of the response to 10 µM adenosine (A2BAR [1]; 10 µM antagonist): 80.5 ± 3.0% and 80%
- mode of antagonism (in words) (A2BAR [1]): non-competitive antagonism
- IC50 (A2BAR [1]; [5]): 17.4 nM
- pIC50 (A2BAR [1]; [5]): 7.86 ± 0.13
- IC50 (A2BAR [1]; [6]): 49.8 nM
- pIC50 (A2BAR [1]; [6]): 7.53 ± 0.22
- IC50 (A2BAR [1]; [7]): 141 nM
- pIC50 (A2BAR [1]; [7]): 7.56 ± 0.43
- -Log KB (A2BAR [1]; agonist BAY 60-6583 (1 µM)): 8.55 ± 0.13
- Kb (A2BAR [1]; agonist BAY 60-6583 (1 µM)): 3.6 nM
- -Log KB (A2BAR [1]; agonist NECA (10 µM)): 8.50 ± 0.22
- Kb (A2BAR [1]; agonist NECA (10 µM)): 5.3 nM
- -Log KB (A2BAR [1]; agonist adenosine (10 µM)): 7.89 ± 0.43
- Kb (A2BAR [1]; agonist adenosine (10 µM)): 66.3 nM
- residual peak response to NECA (A2BAR [1]; limiting level of antagonism, kinetic profile, 10 μM NECA): circa 20%
- Ki (A2AAR [4]): > 10000 nM
- effect of pre-incubation on the response to forskolin (in words) (adenylyl cyclase): did not affect; also recorded: completely unaffected

Structure (SMILES): N#Cc1c(N)nc(SCC(N)=O)c(C#N)c1-c1ccc(OCC2CC2)cc1 [BAY 60-6583, 2-[[6-Amino-3,5-dicyano-4-[4-(cyclopropylmethoxy)phenyl]-2-pyridinyl]thio]-acetamide]
- EC50 (A2BAR [1]; BAY 60-6583 pEC50, PSB 603 0 nM): 407 nM
- EC50 (A2BAR [1]; BAY 60-6583 pEC50, PSB 603 30 nM): 1580 nM
- EC50 (A2BAR [1]; BAY 60-6583 pEC50, PSB 603 100 nM): 4570 nM
- EC50 (A2BAR [1]; BAY 60-6583 pEC50, PSB 603 300 nM): > 30000 nM
- EC50 (A2BAR [1]; BAY 60-6583 pEC50, XAC 0 nM): 380 nM
- EC50 (A2BAR [1]; BAY 60-6583 pEC50, XAC 100 nM): 1320 nM
- EC50 (A2BAR [1]; BAY 60-6583 pEC50, XAC 300 nM): 2240 nM
- EC50 (A2BAR [1]; BAY 60-6583 pEC50, XAC 1000 nM): 9330 nM
- EC50 (A2BAR [1]; BAY 60-6583 pEC50, ZM 241385 0 nM): 347 nM
- EC50 (A2BAR [1]; BAY 60-6583 pEC50, ZM 241385 100 nM): 1410 nM
- EC50 (A2BAR [1]; BAY 60-6583 pEC50, ZM 241385 300 nM): 2140 nM
- EC50 (A2BAR [1]; BAY 60-6583 pEC50, ZM 241385 1000 nM): 7240 nM
- Emax at 0.03 µM (A2BAR [1]; HEK293G, read-out: BAY 60-6583 Emax, PSB 603 30 nM, percentage of response to 10 µM BAY 60-6583): 82.2 ± 1.64%
- Emax at 0.1 µM (A2BAR [1]; HEK293G, read-out: BAY 60-6583 Emax, PSB 603 100 nM, percentage of response to 10 µM BAY 60-6583): 68.7 ± 6.78%
- Emax at 0.3 µM (A2BAR [1]; HEK293G, read-out: BAY 60-6583 Emax, PSB 603 300 nM, percentage of response to 10 µM BAY 60-6583): 99.3 ± 26.6%
- Emax (A2BAR [1]; HEK293G, read-out: BAY 60-6583 Emax, XAC 0 nM, percentage of response to 10 μM BAY 60-6583): 104 ± 5.27%
- Emax (A2BAR [1]; HEK293G, read-out: BAY 60-6583 Emax, XAC 100 nM, percentage of response to 10 μM BAY 60-6583): 96.6 ± 4.8%
- Emax (A2BAR [1]; HEK293G, read-out: BAY 60-6583 Emax, XAC 300 nM, percentage of response to 10 μM BAY 60-6583): 85.6 ± 5.04%
- Emax (A2BAR [1]; HEK293G, read-out: BAY 60-6583 Emax, XAC 1000 nM, percentage of response to 10 μM BAY 60-6583): 55.9 ± 7.86%
- Emax at 0.1 µM (A2BAR [1]; HEK293G, read-out: BAY 60-6583 Emax, ZM 241385 100 nM, percentage of response to 10 μM BAY 60-6583): 99 ± 7.14%
- Emax at 0.3 µM (A2BAR [1]; HEK293G, read-out: BAY 60-6583 Emax, ZM 241385 300 nM, percentage of response to 10 μM BAY 60-6583): 80.8 ± 8.36%
- Emax at 1 µM (A2BAR [1]; HEK293G, read-out: BAY 60-6583 Emax, ZM 241385 1000 nM, percentage of response to 10 μM BAY 60-6583): 54.1 ± 8.41%
- BAY 60-6583 Emax (A2BAR [1]; PSB 603 0 nM, percentage of response to 10 µM BAY 60-6583): 104.40 ± 5.14%
- BAY 60-6583 Emax (A2BAR [1]; ZM 241385 0 nM, percentage of response to 10 μM BAY 60-6583): 100.80 ± 4.61%
- EC50 (A2BAR [1]; agonist pEC50, cAMP Glosensor luminescence, peak luminescence, HEK 293 cells, no antagonist (Fig. 4)): 646 nM
- agonist efficacy (in words) (A2BAR [1]; relative to adenosine and NECA, HEK293G): partial agonist
